The nature of data set [1]: Cytotoxicity against HUVEC assessed as decrease in cell viability at 0.01 to 50 umol/l after 24 hrs by trypan blue dye based assay. The data set is classed as toxicity. To be noted: human.
For data set [2], the system named is Plasmodium falciparum. Nature of the data set: Antimalarial activity against chloroquine-resistant Plasmodium falciparum W2 infected in red blood cells after 72 hrs by SYBR green 1 staining based fluorometric assay. Format: functional, cell-based. Conditions: W2, 72 h.
Data set [3] is described as follows: Stability of the compound in pH 7.4 solution up to 48 hrs. The data set is classed as physicochemical. To be noted: buffer, pH 7.4, 48 h.
The nature of data set [4]: Resistance index, ratio of IC50 for chloroquine-resistant Plasmodium falciparum W2 infected in red blood cells to IC50 for chloroquine-sensitive Plasmodium falciparum 3D7 infected in red blood cells. The data set is classed as functional.
For data set [5], the system named is Plasmodium falciparum. Nature of the data set: Antimalarial activity against chloroquine-sensitive Plasmodium falciparum 3D7 infected in red blood cells after 72 hrs by SYBR green 1 staining based fluorometric assay. The data set is classed as functional, cell-based. Conditions: 3D7, 72 h.

In general, IC50 refers to the point on the concentration scale where inhibition reaches its midpoint. The low end stands for greater potency, the high end for weaker potency.

SMILES strings stand for the structures.

Take `COC1=CC(=O)N(CCN2CCN(CCNc3ccnc4cc(Cl)ccc34)CC2)C1(O)Cc1ccc(C(F)(F)F)cc1` (stereo not given): the Activity entry in data set [1] is reported as “Non-Toxic”. The values for the IC50 in data set [2] and in data set [5] were 16 nM and 19 nM, respectively. Moreover, the Stability result in data set [3] is “Stable”. Also, the “Ratio IC50” value in data set [4] amounted to 0.8.

For the compound `O=C1C=C(OCc2ccccc2)C(O)(Cc2ccccc2)N1CCCNc1ccnc2cc(Cl)ccc12` (stereo not given), the results for the IC50 in data set [2] and in data set [5] were 191 nM and 143 nM, respectively. The “Ratio IC50” value in data set [4] is 1.3.

Take `COC1=CC(=O)N(CCN(C)CCNc2ccnc3cc(Cl)ccc23)C1(O)Cc1ccc(C(F)(F)F)cc1` (stereo not given): the Activity result in data set [1] was “Non-Toxic”. Moreover, the figures for the IC50 in data set [2] and in data set [5] were 34 nM and 14 nM, respectively. In addition, the Stability result in data set [3] is listed as “Stable”. Besides, in data set [4], the “Ratio IC50” value was found to be 2.4.

Turning to `COC1=CC(=O)N(CCCNc2ccnc3cc(Cl)ccc23)C1(O)Cc1ccc(C(C)(C)C)cc1` (stereo not given), the results for the IC50 in data set [2] and in data set [5] were 214 nM and 91 nM, respectively. Besides, the “Ratio IC50” value in data set [4] amounted to 2.3.

For `CN(CCNc1ccnc2cc(Cl)ccc12)CCN1C(=O)C=C(OCc2ccccc2)C1(O)Cc1ccccc1` (stereo not given), the Activity result in data set [1] is listed as “Non-Toxic”. For the same compound, the IC50 in data set [2] stood at 64 nM; in data set [5], 54 nM. In addition, the Stability entry in data set [3] is listed as “Stable”. In addition, in data set [4], the “Ratio IC50” value is 1.2.

For the compound `O=C1C=C(OCc2ccccc2)C(O)(Cc2ccc(F)cc2)N1CCCNc1ccnc2cc(Cl)ccc12` (stereo not given), the Activity result in data set [1] is on record as “Non-Toxic”. In addition, the IC50 in data set [2] came to 58 nM; in data set [5], 42 nM. In addition, the Stability entry in data set [3] is reported as “Stable”. Besides, the “Ratio IC50” value in data set [4] was determined as 1.4.

Consider `CN(CCNc1ccnc2cc(Cl)ccc12)CCN1C(=O)C=C(OCc2ccccc2)C1(O)Cc1ccc(C(F)(F)F)cc1` (stereo not given), for which, in data set [1], the Activity result is reported as “Non-Toxic”. Besides, the IC50 worked out at 42 nM in data set [2] and 40 nM in data set [5]. Moreover, the Stability entry in data set [3] is “Stable”. Besides, in data set [4], the “Ratio IC50” value was 1.

On to `COC1=CC(=O)N(CCCNc2ccnc3cc(Cl)ccc23)C1(O)Cc1ccc(F)cc1` (stereo not given), for which the results for the IC50 in data set [2] and in data set [5] were 670 nM and 191 nM, respectively. In addition, in data set [4], the “Ratio IC50” value came out at 3.5.

As for `COC1=CC(=O)N(CCCNc2ccnc3cc(Cl)ccc23)C1(O)Cc1ccccc1` (stereo not given), the IC50 in data set [2] came out at 827 nM; in data set [5], 300 nM. In addition, in data set [4], the “Ratio IC50” value is 2.8.

In the case of `O=C1C=C(OCc2ccccc2)C(O)(Cc2ccc(C(F)(F)F)cc2)N1CCCNc1ccnc2cc(Cl)ccc12` (stereo not given), in data set [1], the Activity result is “Non-Toxic”. The IC50 in data set [2] and in data set [5] was 36 nM throughout. The Stability entry in data set [3] is reported as “Stable”. In addition, the “Ratio IC50” value in data set [4] worked out at 1.

For the compound `COC1=CC(=O)N(CCCNc2ccnc3cc(Cl)ccc23)C1(O)Cc1ccc(OC)c(OC)c1` (stereo not given), the IC50 in data set [2] came to 760 nM; in data set [5] it was 511 nM. Further, the “Ratio IC50” value in data set [4] is 1.5.

Source of the values: ChEMBL document CHEMBL3862008, “7-Chloro-4-aminoquinoline γ-hydroxy-γ-lactam derived-tetramates as a new family of antimalarial compounds” (Bioorg Med Chem Lett, 2016).
